{"source": "PubChem BioAssay AID1996"}
{"conditions": "buffer; pH 7.4; 200.0 µM", "units": {"solubility kinetic": "µg/mL"}}
{"smiles": "Cc1ccc(C(=O)N/C(=C\\c2cccs2)C(=O)N2CCOCC2)cc1C", "solubility kinetic": "> 55.6"}
{"smiles": "CN(C)C(=O)c1ccccc1NC(=O)Cc1cccc2ccccc12", "solubility kinetic": 49.8}
{"smiles": "CCOC(=O)Nc1ccc2nc3n(c(=O)c2c1)CCCCC3", "solubility kinetic": 9.1}
{"smiles": "COc1ccc(OC)c(NC(=O)c2ccc3c(c2)OCO3)c1", "solubility kinetic": 4.7}
{"smiles": "Cc1nc2ccc(NC(=O)Cc3cccc(F)c3)cc2s1", "solubility kinetic": 11.5}
{"smiles": "Clc1cccc(CNCC2CCCO2)c1Cl", "note": "(stereo unspecified)", "solubility kinetic": 33.3}
{"smiles": "CC(=O)c1cn(C)c(=O)c2ccccc12", "solubility kinetic": "> 30.2"}
{"smiles": "O=c1[nH]c(N2CCCCCC2)nc2ncn(Cc3ccccc3)c12", "solubility kinetic": 13}
{"smiles": "O=C(COC(=O)c1ccc(Cl)nc1)Nc1ccc2c(c1)OCO2", "solubility kinetic": "> 50.2"}
{"smiles": "O=S(=O)(NCCc1ccccn1)c1ccc(-c2ccccn2)s1", "solubility kinetic": 30.6}
{"smiles": "Cc1cc(SCNC(=O)c2ccccc2)nc(C(C)C)n1", "solubility kinetic": "> 45.2"}
{"smiles": "O=C(NCCCNC(=O)c1ccc(F)cc1)c1ccc(F)cc1", "solubility kinetic": 30.9}
{"smiles": "Cc1ccc2cccc(OCC(=O)N3CCc4ccccc43)c2n1", "solubility kinetic": "< 0.3"}
{"smiles": "COc1cc(C)c(NC(=S)NCCCN2CCOCC2)cc1OC", "solubility kinetic": "> 53"}
{"smiles": "Oc1ccc2ccccc2c1CNc1ccc(Br)cc1", "solubility kinetic": 5.5}
{"smiles": "CC(C)=C(NC(=O)c1ccccc1)C(=O)Nc1ccc(C(=O)O)cc1", "solubility kinetic": "> 50.8"}
{"smiles": "CC1CCCC(C)N1C(=O)CSc1nc(N)cc(N)n1", "note": "(stereo unspecified)", "solubility kinetic": "> 44.3"}
{"smiles": "S=C(Nc1cccnc1)Nc1ccccc1Br", "solubility kinetic": "> 46.2"}
{"smiles": "Cc1nc(NC(=O)c2cccnc2Cl)sc1C", "solubility kinetic": "> 40.2"}
{"smiles": "Cc1nc2cc(NC(=O)NCCCO)ccc2o1", "solubility kinetic": "> 37.4"}
{"smiles": "CCc1ccc(/C=C\\C(=O)N2CCCC2)cc1", "solubility kinetic": 28.3}
{"smiles": "O=C(Nc1ccccc1)N1CCCC1c1cccs1", "note": "(stereo unspecified)", "solubility kinetic": 39.9}
{"smiles": "Cn1c(N)c(C(=O)COC(=O)c2cccc(S(=O)(=O)N3CCOCC3)c2)c(=O)n(C)c1=O", "solubility kinetic": 20}
{"smiles": "COc1ccc(OCCC(=O)N2CCN(C)CC2)cc1.Cl", "solubility kinetic": "> 47.2"}
{"smiles": "O=C(NC(=S)Nc1ccccc1Br)C1CCC1", "solubility kinetic": 7.8}
{"smiles": "Cc1cccc(CN2CCSCC2)c1", "solubility kinetic": 7}
{"smiles": "O=S(=O)(Cc1ccccc1Cl)NCc1ccccc1", "solubility kinetic": 32.1}
{"smiles": "O=C(Cn1c(NCCO)nc2ccccc21)Nc1cccc(S(=O)(=O)N2CCCC2)c1", "solubility kinetic": 63.1}
{"smiles": "O=C(O)CCCC(=O)NCc1c(Cl)cccc1Sc1ccc(Cl)cc1", "solubility kinetic": "> 59.7"}
{"smiles": "COCCN(Cc1ccccc1)C(=S)Nc1ccc(Cl)cc1", "solubility kinetic": 8.6}
{"smiles": "COc1cccc(Nc2nc(-c3ccccc3O)nc3ccccc23)c1", "solubility kinetic": "< 0.2"}
{"smiles": "C=CCn1c(=S)[nH]c2cc(-c3ccccc3)sc2c1=O", "solubility kinetic": "< 0.3"}
{"smiles": "CCN(CC)C(=O)Oc1ccc(NC(=O)N2CCOCC2)cc1", "solubility kinetic": "> 48.2"}
{"smiles": "CC(=O)c1cnc(Oc2cc(Cl)ccc2Cl)nc1C", "solubility kinetic": 42.4}
{"smiles": "c1ccc(-c2ccccc2OCCN2CCCC2)cc1", "solubility kinetic": 25}
{"smiles": "Cc1ccc(NC(=S)NC(=O)C2CCC2)cc1C", "solubility kinetic": 3.3}
{"smiles": "O=C(NCc1cccc(C(F)(F)F)c1)c1ccc2c(c1)OCCO2", "solubility kinetic": 6.1}
{"smiles": "O=C(Nc1ccccc1)c1cccc(Cn2cc(C(F)(F)F)ccc2=O)c1", "solubility kinetic": 2}
{"smiles": "COc1ccc(C(CNC(=O)Cc2c(F)cccc2Cl)N2CCCCC2)cc1", "note": "(stereo unspecified)", "solubility kinetic": 59.1}
{"smiles": "CCC(C)NS(=O)(=O)c1ccc(NC(=O)c2cccs2)cc1", "note": "(stereo unspecified)", "solubility kinetic": 2.6}
{"smiles": "C=CCOc1ccc(/C=C2\\SC(N3CCCCC3)=NC2=O)cc1", "solubility kinetic": "< 0.4"}
{"smiles": "O=C(Cc1ccccc1)NCCc1c[nH]c2ccccc12.O=C(O)C(=O)O", "solubility kinetic": 47.8}
{"smiles": "CCCCNC(=S)N1CCN(c2ccccc2Cl)CC1", "solubility kinetic": 13.1}
{"smiles": "Cc1cnc(C(=O)Nc2ccc(N3CCCCC3)cc2)cn1", "solubility kinetic": 4.2}
{"smiles": "O=C(Nc1ccc(Br)cc1)c1cc(-c2ccncc2)nc2ccccc12", "solubility kinetic": 5.8}
{"smiles": "COC(=O)c1ccc(Cl)c(NC(=O)c2cccc([N+](=O)[O-])c2C)c1", "solubility kinetic": 0.7}
{"smiles": "CC(NC(=O)/C(C#N)=C/c1ccco1)c1ccccc1", "note": "(stereo unspecified)", "solubility kinetic": 38.8}
{"smiles": "Cc1ccc(S(=O)(=O)Nc2ccccc2C(O)c2ccccc2)cc1", "note": "(stereo unspecified)", "solubility kinetic": 6.1}
{"smiles": "CC(=O)Nc1ccc(NC(=O)c2nccnc2C(=O)O)cn1", "solubility kinetic": "> 45.2"}
{"smiles": "CC(=O)c1c(N2CCOCC2)nc2ccc(Cl)cc2c1-c1ccccc1", "solubility kinetic": 1.8}
{"smiles": "Cc1nc2ccccc2c(=O)n1-c1cc(F)ccc1F", "solubility kinetic": "> 40.8"}
{"smiles": "COc1ccc(S(=O)(=O)N2CCC(C)CC2)cc1OC", "solubility kinetic": 44.8}
{"smiles": "Nc1nnc(SCc2ccccc2F)s1", "solubility kinetic": "> 36.2"}
{"smiles": "CC(=O)Nc1nc(C)c(Oc2ccc(Cl)cc2)c(=O)[nH]1", "solubility kinetic": 43}
{"smiles": "O=C(Cc1ccccc1[N+](=O)[O-])NCCc1ccc(F)cc1", "solubility kinetic": 44.6}
{"smiles": "O=C(NC(O)C(=O)c1ccccc1)c1ccccn1", "note": "(stereo unspecified)", "solubility kinetic": "> 38.4"}
{"smiles": "O=C(O)c1cccnc1SCc1ccc([N+](=O)[O-])cc1", "solubility kinetic": "> 43.5"}
{"smiles": "COC(=O)c1sc(-c2ccccc2)cc1NC(=O)C1CC1", "solubility kinetic": 0.7}
{"smiles": "CC1(C)CC(NC(=O)Nc2ccc([N+](=O)[O-])cc2)CC(C)(C)N1", "solubility kinetic": "> 48.1"}
{"smiles": "CCCc1nc2sc3c(c2c(=O)[nH]1)CCCC3", "solubility kinetic": 1.3}
{"smiles": "CN(CCOc1ccc(Cl)cc1)C(=O)C1=CC=CN2CCS(=O)(=O)N=C12", "solubility kinetic": "> 59.4"}
{"smiles": "CC(=O)c1ccc(S(=O)(=O)Nc2ccc(Cl)c(S(=O)(=O)N3CCCC3)c2)cc1", "solubility kinetic": "> 66.4"}
{"smiles": "O=C(O)C1CCC(CNS(=O)(=O)c2ccc(Cl)cc2)CC1", "note": "(stereo unspecified)", "solubility kinetic": 43}
{"smiles": "Cc1cc(NC(=O)c2ccc(C)o2)no1", "solubility kinetic": "> 30.9"}
{"smiles": "COc1ccccc1C(=O)Nc1ccc2c(C)cc(=O)oc2c1", "solubility kinetic": 1.3}
{"smiles": "COc1ccc(C(=O)NCc2ccccc2C)cc1S(=O)(=O)NC1CCCC1", "solubility kinetic": 33.6}
{"smiles": "COc1ccc(-n2c(SCC(N)=O)nnc2-c2ccco2)cc1", "solubility kinetic": "> 49.6"}
{"smiles": "c1cc2c3c(cccc3c1)NC(c1ccc3c(c1)OCO3)N2", "solubility kinetic": 9.5}
{"smiles": "O=C(Nc1ccc2ccccc2c1)c1cc(F)c(F)cc1Cl", "solubility kinetic": "< 0.7"}
{"smiles": "Cc1cc(OC(=O)c2ccccc2F)c([N+](=O)[O-])c(=O)[nH]1", "solubility kinetic": "> 43.8"}
{"smiles": "CC(C)NC(=O)c1cc2c(=O)n3ccccc3nc2s1", "solubility kinetic": "< 0.2"}
{"smiles": "CCOc1ccc(N2C(=O)CC(Sc3nc(O)c(CC)c(=O)[nH]3)C2=O)cc1", "note": "(stereo unspecified)", "solubility kinetic": "> 58.4"}
{"smiles": "COC(=O)c1c(-c2ccc(F)cc2)csc1NC(=O)C1CCCO1", "note": "(stereo unspecified)", "solubility kinetic": 5.2}
{"smiles": "O=C(O)COc1ccc(NC(=O)C(c2ccccc2)c2ccccc2)cc1", "solubility kinetic": "> 54.2"}
{"smiles": "Oc1ccccc1N1CCN(C(=S)NCc2ccccc2)CC1", "solubility kinetic": 22.4}
{"smiles": "Cc1ccc(C2NC(=O)c3ccccc3O2)cc1", "note": "(stereo unspecified)", "solubility kinetic": 10.6}
{"smiles": "COC(=O)c1cccc(Cn2cc([N+](=O)[O-])cn2)c1", "solubility kinetic": "> 39.2"}
{"smiles": "COc1ccc(CNC(=O)CSc2nc3cccnc3s2)cc1", "solubility kinetic": 36.3}
{"smiles": "CCOC(=O)c1sc(=NC(=O)c2ccc(C)cc2)n(C)c1C", "solubility kinetic": "< 0.3"}
{"smiles": "O=c1c2ccccc2ncn1-c1ccc(Cl)cc1", "solubility kinetic": 8.7}
{"smiles": "Cc1ccc(-c2nc(=O)[nH]c3ccccc23)cc1", "solubility kinetic": 25.8}
{"smiles": "Cc1cc(=O)oc2cc(NC(=O)c3ccccc3C(=O)O)ccc12", "solubility kinetic": "> 48.5"}
{"smiles": "COC1C(C)=C(C)C(=O)N1Cc1ccccc1", "note": "(stereo unspecified)", "solubility kinetic": 33.9}
{"smiles": "O=C(NCC(=O)N1CCN(Cc2ccccc2)CC1)c1cccs1", "solubility kinetic": "> 51.5"}
{"smiles": "CC(=O)c1cccc(OCCCOc2cccc3cccnc23)c1", "solubility kinetic": 37.2}
{"smiles": "O=C(Nc1cccnc1)c1ccc(N2CCOCC2)c([N+](=O)[O-])c1", "solubility kinetic": 41.2}
{"smiles": "Cc1c(C)n(-c2ccccc2)c2ncnc(NCCN(C)C)c12", "solubility kinetic": "> 46.4"}
{"smiles": "CCOc1ccccc1C(=O)Nc1c[nH]c(=O)[nH]c1=O", "solubility kinetic": 2.4}
{"smiles": "CCOc1ccc(-c2csc(NC(=O)c3ccco3)n2)cc1", "solubility kinetic": 2.6}
{"smiles": "Cc1cc(=O)[nH]c(SCC(=O)Nc2ccc(N3CCCCC3)cc2)n1", "solubility kinetic": 28.5}
{"smiles": "COc1ccccc1NC(=O)c1csc2c1CCC(C)C2", "note": "(stereo unspecified)", "solubility kinetic": 1.2}
{"smiles": "Cc1cc(C)c(C#N)c(OCc2ccc(Cl)nc2)n1", "solubility kinetic": 8.5}
{"smiles": "CCC(C)NC(=S)Nc1ccc(F)cc1", "note": "(stereo unspecified)", "solubility kinetic": "> 33.9"}
{"smiles": "NS(=O)(=O)c1ccc(CNC(=S)NC(=O)c2ccco2)cc1", "solubility kinetic": "> 50.9"}
{"smiles": "Cc1ccc(S(=O)(=O)CCc2ccncc2)cc1", "solubility kinetic": "> 39.2"}
{"smiles": "CCc1ccc(CNCc2cccs2)cc1.Cl", "solubility kinetic": 23.9}
{"smiles": "Cc1ccc2[nH]c(C(=O)NCCN3CCCC3)cc2c1.Cl", "solubility kinetic": "> 46.2"}
{"smiles": "Cn1cccc/c1=N\\c1cccc[n+]1C.[I-]", "solubility kinetic": "> 49.1"}
{"smiles": "Brc1nc(-c2ccccc2)nc(-c2ccccc2)c1Br", "solubility kinetic": "< 0.4"}
{"smiles": "Cn1c(C(=O)O)c(S(=O)(=O)c2ccc(Cl)cc2)c2ccccc21", "solubility kinetic": 51.8}
{"smiles": "COc1ccc(CC(=O)OCC(=O)NC2CCCCC2)cc1OC", "solubility kinetic": "> 50.3"}
{"smiles": "CC1CCCN(C2(O)C(=O)Nc3ccc(Cl)cc32)C1", "note": "(stereo unspecified)", "solubility kinetic": "> 42.1"}
{"smiles": "Nc1nc2ccccc2n1CCOc1ccc(Cl)cc1", "solubility kinetic": 25.8}
{"smiles": "Cl.c1csc(CN2CCNCC2)c1", "solubility kinetic": "> 38.3"}
{"smiles": "OCCN=C1CCCc2c1[nH]c1ccc(Cl)cc21", "solubility kinetic": 12.3}
{"smiles": "O=C(NCc1cccs1)c1cc(-c2ccc(O)cc2)on1", "solubility kinetic": 1.7}
{"smiles": "Nc1nc(-c2cc3c(cc2Cl)OCCO3)cs1", "solubility kinetic": 25.9}
{"smiles": "COc1ccc(Br)cc1CN(C)C(=O)C1=CC=CN2CCS(=O)(=O)N=C12", "solubility kinetic": 43.1}
{"smiles": "O=C1CN(C(=O)/C=C/c2cc(Br)ccc2F)CCN1", "solubility kinetic": "> 49.1"}
{"smiles": "CCCCn1c(N)c(N(CC)C(=O)c2cccc(C)c2)c(=O)[nH]c1=O", "solubility kinetic": "> 51.7"}
{"smiles": "Cc1ccccc1C(=O)NCCNC(=O)c1cnccn1", "solubility kinetic": 35.7}
{"smiles": "CCCC(=O)Nc1ccc(S(=O)(=O)Nc2nccs2)cc1", "solubility kinetic": 30.4}
{"smiles": "Cc1ccc(CN2C(=O)CNC2=S)cc1", "solubility kinetic": "> 33"}
{"smiles": "Nc1ccc2nc(-c3cccc(-c4nc5ccc(N)cc5[nH]4)n3)[nH]c2c1", "solubility kinetic": 21.5}
{"smiles": "CC(C)(C)c1ccc(/C=C/C(=O)NCCCn2ccnc2)cc1", "solubility kinetic": 46.1}
{"smiles": "O=C(NC1CCN(Cc2ccccc2)CC1)c1ccc2c(c1)OCCCO2", "solubility kinetic": 51.6}
{"smiles": "Cc1nc(-c2ccccn2)sc1C(=O)O", "solubility kinetic": "> 33"}
{"smiles": "COc1ccc(CN2C(=O)c3ccccc3C2=O)cc1", "solubility kinetic": 6}
{"smiles": "Cc1cccc(OCC(=O)Nc2ccc3c(c2)C(=O)NC3=O)c1", "solubility kinetic": 1.3}
{"smiles": "COC(=O)c1sccc1NC(=O)Nc1cccc(C)c1C", "solubility kinetic": 8.1}
{"smiles": "COCC(=O)OCc1cc2cccc(C)c2[nH]c1=O", "solubility kinetic": 38.9}
